The record followed here is ChEMBL document CHEMBL5500360, “Discovery of N-(4-((6-(3,5- Dimethoxyphenyl)-9H-purine derivatives as irreversible covalent FGFR inhibitors” (Eur J Med Chem, 2024).

What is called IC50 is the point on the concentration scale where inhibition reaches its midpoint. The low end stands for greater potency, the high end for weaker potency.

In data set [1] the test system is KYSE-150 cell line. The data set can be described thus: cells. The note with it: Homo sapiens, KYSE-150, 72 h.
Description: Antiproliferative activity against human KYSE-150 cells assessed as inhibition of cell growth incubated for 72 hrs by MTT assay
Data set [2] deals with MDA-MB-435. The data set can be described thus: cells. The note with it: Homo sapiens, MDA-MB-435, 72 h.
Description: Antiproliferative activity against human MDA-MB-435 cells assessed as inhibition of cell growth incubated for 72 hrs by MTT assay
The nature of data set [3]: in vitro. The note with it: human.
Description: Cytotoxicity against HUVEC cells assessed as inhibition of cell growth incubated for 72 hrs by MTT assay
Data set [4] concerns HepG2. The data set can be described thus: cells. The conditions noted are these: Homo sapiens, HepG2, 72 h.
Data set [5] has as its system MDA-MB-231. The data set can be described thus: cells. The note with it: Homo sapiens, MDA-MB-231, 72 h.

For `C=CC(=O)Nc1ccc(C(=O)n2ccc3cc(Cl)cnc32)cc1`, the IC50 was 10.8 µM in data set [1], 18.5 µM in data set [2], 45 µM in data set [4] and 34.8 µM in data set [5]. This molecule displayed a 50% inhibitory concentration (IC50) at 72 h in data set [3] (HUVEC cells) of 80.4 µM.

Consider `C=CC(=O)Nc1cc(Cn2ncc3ccc(Br)cc32)ccc1F`, for which the IC50 in data set [1] was 9.84 µM; in data set [2], 6.3 µM; in data set [4], 16.4 µM; in data set [5] it was 29.7 µM. In addition, half-maximal inhibition in data set [3] (HUVEC cells) (IC50 at 72 h) was put at 69.7 µM.

On to `C=CC(=O)Nc1cc(Cn2cnc3c(Cl)ncnc32)ccc1F`, for which the IC50 was 3.78 µM in data set [1], 5.67 µM in data set [2], 15.7 µM in data set [4] and 10.1 µM in data set [5]. In addition, the IC50 at 72 h in data set [3] (HUVEC cells) was determined as 71.4 µM.

Regarding `C=CC(=O)Nc1ccc(C(=O)n2ccc3c(Cl)ncnc32)cc1`, the IC50 in data set [1] was found to be 10.1 µM; in data set [2], 10 µM; in data set [4], 40.1 µM; in data set [5] it was 29.4 µM. Moreover, the IC50 at 72 h in data set [3] (HUVEC cells) stood at 56.1 µM.

As for `CC(C)=CC(=O)Nc1ccc(Cn2cnc3c(Cl)ncnc32)cc1`, the IC50 worked out at 13.3 µM in data set [1], 30.1 µM in data set [2], 19.1 µM in data set [4] and 7.36 µM in data set [5]. Also, half-maximal inhibition in data set [3] (HUVEC cells) (IC50 at 72 h) was put at 77.1 µM.

Turning to `C=CC(=O)Nc1ccc(Cn2cnc3c(-c4ccc(F)c(F)c4)ncnc32)cc1`, the IC50 in data set [1] turned out to be 14.3 µM; in data set [2], 13.2 µM; in data set [4] it was 8.36 µM; in data set [5] it was 5.64 µM. In data set [3] (HUVEC cells), this molecule yielded an IC50 at 72 h of 75.2 µM.

For the molecule `C=CC(=O)Nc1ccc(C(=O)n2ncc3ccc(Br)cc32)cc1`, the IC50 worked out at 6.86 µM in data set [1], 3.3 µM in data set [2], 51.1 µM in data set [4] and 40 µM in data set [5]. In data set [3] (HUVEC cells), this molecule returned an IC50 at 72 h of 81 µM.

As for `CC(Cl)C(=O)Nc1ccc(Cn2cnc3c(Cl)ncnc32)cc1` (stereo not drawn), the IC50 amounted to 9.46 µM in data set [1], 32.2 µM in data set [2], 17.8 µM in data set [4] and 9.87 µM in data set [5]. The IC50 at 72 h in data set [3] (HUVEC cells) came out at 81.8 µM.

For the molecule `C=CC(=O)Nc1ccc(C(=O)n2ccc3cc(Br)cnc32)cc1`, the IC50 worked out at 16.8 µM in data set [1], 18.9 µM in data set [2], 39.4 µM in data set [4] and 24.4 µM in data set [5]. The molecule also returned an IC50 at 72 h in data set [3] (HUVEC cells) of 75.4 µM.

Consider `C=CC(=O)Nc1ccc(Cn2cnc3c(Cl)ncnc32)cc1`, for which the IC50 amounted to 2.95 µM in data set [1], 5.93 µM in data set [2], 2.81 µM in data set [4] and 2.64 µM in data set [5]. Further, 50.5 µM corresponded to half-maximal inhibition in data set [3] (HUVEC cells) (IC50 at 72 h).

For `C=CC(=O)Nc1cc(Cn2ccc3ccc(Br)cc32)ccc1F`, the IC50 in data set [1] was 7.26 µM; in data set [2], 24.6 µM; in data set [4], 11.1 µM; in data set [5] it was 7.21 µM. Further, in data set [3] (HUVEC cells), the IC50 at 72 h was found to be 76.5 µM.

For the molecule `CCC(=O)Nc1ccc(Cn2cnc3c(Cl)ncnc32)cc1`, the IC50 was 13.3 µM in data set [1], 30.1 µM in data set [2], 28.5 µM in data set [4] and 7.93 µM in data set [5]. In data set [3] (HUVEC cells), this molecule displayed an IC50 at 72 h of 80.1 µM.

Take `C=CC(=O)Nc1ccc(C(=O)n2ncc3cccnc32)cc1`: the IC50 in data set [1] is 9.83 µM; in data set [2], 33.8 µM; in data set [4] it was 42.6 µM; in data set [5], 26.7 µM. Half-maximal inhibition in data set [3] (HUVEC cells) (IC50 at 72 h) required 82.2 µM.

Consider `C=CC(=O)Nc1cc(Cn2ccc3ncnc(Cl)c32)ccc1F`, for which the IC50 in data set [1] turned out to be 15.9 µM; in data set [2], 26.2 µM; in data set [4] it was 25.1 µM; in data set [5] it was 40.3 µM. Also, half-maximal inhibition in data set [3] (HUVEC cells) (IC50 at 72 h) was put at 79.3 µM.

Take `C=CC(=O)Nc1ccc(Cn2cnc3c(-c4ccccc4)ncnc32)cc1`: the IC50 in data set [1] turned out to be 11.2 µM; in data set [2] it was 12.8 µM; in data set [4] it was 9.34 µM; in data set [5], 7.22 µM. Besides, the IC50 at 72 h in data set [3] (HUVEC cells) was 81.3 µM.

Turning to `C=CC(=O)Nc1cc(Cn2nnc3c(C(=O)NCC(F)F)cccc32)ccc1F`, the IC50 amounted to 16.2 µM in data set [1], 27.9 µM in data set [2], 19.9 µM in data set [4] and 29.2 µM in data set [5]. In data set [3] (HUVEC cells), 50.9 µM corresponded to half-maximal inhibition (IC50 at 72 h).

With `O=C(CCl)Nc1ccc(Cn2cnc3c(Cl)ncnc32)cc1`, the IC50 in data set [1] amounted to 12.3 µM; in data set [2], 26.4 µM; in data set [4] it was 27.3 µM; in data set [5], 21.2 µM. The midpoint of inhibition in data set [3] (HUVEC cells), the IC50 at 72 h, lay at 64 µM.

As for `C=CC(=O)Nc1cc(Cn2ncc3ccncc32)ccc1F`, the IC50 in data set [1] was determined as 5.21 µM; in data set [2] it was 24.1 µM; in data set [4] it was 29.1 µM; in data set [5], 9.15 µM. Besides, the IC50 at 72 h in data set [3] (HUVEC cells) was found to be 54.6 µM.

Turning to `C=CC(=O)N1CC[C@@H](n2nc(C#Cc3cc(OC)cc(OC)c3)c3c(N)ncnc32)C1`, the IC50 came to 17.6 µM in data set [1] and 16.3 µM in data set [2]. In data set [3] (huvec), this molecule yielded an IC50 at 72 h of 63.6 µM.

With `C=CC(=O)Nc1cc(Cn2ccc3c(Cl)ncnc32)ccc1F`, the IC50 stood at 7.68 µM in data set [1], 27.1 µM in data set [2], 26.8 µM in data set [4] and 29.3 µM in data set [5]. The molecule also gave an IC50 at 72 h in data set [3] (HUVEC cells) of 60.3 µM.

As to `C=CC(=O)Nc1cc(Cn2cnc3cnc(Cl)nc32)ccc1F`, the IC50 in data set [1] came to 23.8 µM; in data set [2], 20.8 µM; in data set [4] it was 24.2 µM; in data set [5] it was 23.8 µM. The same molecule had an IC50 at 72 h in data set [3] (HUVEC cells) of 57.1 µM.

Take `C=CC(=O)Nc1cc(Cn2ccc3c(Cl)ccnc32)ccc1F`: the IC50 is 23 µM in data set [1], 27.2 µM in data set [2], 23.7 µM in data set [4] and 27.2 µM in data set [5]. Also, the IC50 at 72 h in data set [3] (HUVEC cells) was found to be 54.4 µM.

On to `C=CC(=O)Nc1cc(Cn2ccc3cc(Br)cnc32)ccc1F`, for which the IC50 in data set [1] worked out at 8.23 µM; in data set [2], 27.4 µM; in data set [4] it was 28.1 µM; in data set [5], 37.4 µM. The same molecule yielded an IC50 at 72 h in data set [3] (HUVEC cells) of 75.5 µM.

As for `C=CC(=O)Nc1ccc(Cn2cnc3c(-c4cccs4)ncnc32)cc1`, the IC50 amounted to 12.2 µM in data set [1], 15.7 µM in data set [2], 11.1 µM in data set [4] and 6.18 µM in data set [5]. In data set [3] (HUVEC cells), the midpoint of inhibition, the IC50 at 72 h, lay at 77.2 µM.

In the case of `C=CC(=O)Nc1cc(Cn2cnc3ccc(Cl)nc32)ccc1F`, the IC50 amounted to 13.8 µM in data set [1], 24.3 µM in data set [2], 24.7 µM in data set [4] and 25.8 µM in data set [5]. The half-inhibitory concentration (IC50) at 72 h in data set [3] (HUVEC cells) worked out at 64.5 µM.

`C=CC(=O)Nc1ccc(Cn2cnc3c(-c4cc5ccccc5s4)ncnc32)cc1`: the IC50 in data set [1] amounted to 8.26 µM; in data set [2], 11.1 µM; in data set [4] it was 9.26 µM; in data set [5], 13.9 µM. The molecule also showed an IC50 at 72 h in data set [3] (HUVEC cells) of 79.1 µM.

As for `C=CC(=O)Nc1cc(Cn2nnc3c(C(=O)OC)cccc32)ccc1F`, the IC50 came out at 13.6 µM in data set [1], 32.5 µM in data set [2], 30.5 µM in data set [4] and 20.3 µM in data set [5]. Further, in data set [3] (HUVEC cells), the IC50 at 72 h turned out to be 64.2 µM.

As for `C=CC(=O)Nc1ccc(Cn2cnc3c(-c4cc5ccccc5o4)ncnc32)cc1`, the IC50 in data set [1] came to 13.5 µM; in data set [2], 20.1 µM; in data set [4], 12.2 µM; in data set [5], 6.53 µM. In data set [3] (HUVEC cells), the midpoint of inhibition, the IC50 at 72 h, lay at 79.2 µM.

Consider `O=C(Nc1ccc(Cn2cnc3c(Cl)ncnc32)cc1)C1CC1`, for which the IC50 is 10.6 µM in data set [1], 31.6 µM in data set [2], 27 µM in data set [4] and 9.64 µM in data set [5]. This molecule also registered an IC50 at 72 h in data set [3] (HUVEC cells) of 81.2 µM.

With `C=C(C)C(=O)Nc1ccc(Cn2cnc3c(Cl)ncnc32)cc1`, the IC50 in data set [1] was determined as 26 µM; in data set [2] it was 29.4 µM; in data set [4], 48.4 µM; in data set [5] it was 66.3 µM. This molecule yielded an IC50 at 72 h in data set [3] (HUVEC cells) of 80.9 µM.

Consider `CC(C)C(=O)Nc1ccc(Cn2cnc3c(Cl)ncnc32)cc1`, for which the IC50 in data set [1] was 18.9 µM; in data set [2] it was 29.4 µM; in data set [4], 27.6 µM; in data set [5] it was 7.17 µM. For the same molecule, in data set [3] (HUVEC cells), the IC50 at 72 h came out at 79.6 µM.

As to `C=CC(=O)Nc1cc(Cn2nnc3c(C(=O)NCC4CC(F)(F)C4)cccc32)ccc1F`, the IC50 in data set [1] was determined as 6.86 µM; in data set [2] it was 27 µM; in data set [4], 29.6 µM; in data set [5], 10 µM. The IC50 at 72 h in data set [3] (HUVEC cells) was found to be 46.2 µM.
